The text below walks through data of US6727264B1 (Synaptic Pharmaceutical Corporation, priority 2001, dated 2004).

Molecules are shown by their SMILES.

The assay deals with rat MCH-1 (Rattus norvegicus, UniProt P97639). The assay is described as follows: Radioligand binding assay at cloned rat MCH1 receptor ([3H] Compound A). Also on record: host or cells: Peak rapid 293 (Peakr293) cells, transient calcium phosphate transfection, membranes. The note with it: cloned rat MCH1 receptor; 0.08 nM [3H] Compound A; Peakr293 cell membranes; read-out: Ki (nM) rMCH1.
Chain of rat MCH-1 (P97639 whole entry): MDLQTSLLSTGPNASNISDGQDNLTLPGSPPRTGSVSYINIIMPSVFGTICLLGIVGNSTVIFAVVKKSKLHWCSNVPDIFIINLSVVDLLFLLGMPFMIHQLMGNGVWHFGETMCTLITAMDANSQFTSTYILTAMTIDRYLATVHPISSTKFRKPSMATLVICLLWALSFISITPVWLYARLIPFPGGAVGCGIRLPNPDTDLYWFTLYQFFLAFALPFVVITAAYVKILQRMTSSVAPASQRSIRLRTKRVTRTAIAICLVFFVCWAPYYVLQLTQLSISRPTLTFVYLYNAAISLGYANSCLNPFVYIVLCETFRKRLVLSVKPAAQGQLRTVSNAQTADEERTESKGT
Regarding `CCC(=O)Nc1cccc(C2CCN(CCCCCCSc3ccccc3)CC2)c1` [Example 588], the inhibition constant (Ki) (usually the equilibrium dissociation constant of an inhibitor or competing ligand from its target) was 284 nM.
In the case of `CCC(=O)Nc1cccc(C2CCN(CCCCCSc3ccccc3)CC2)c1` [Example 589], the inhibition constant Ki came out at 66.6 nM.
Turning to `CC(C)C(=O)Nc1cccc(C2CCN(CCC[S+]([O-])c3ccc(F)cc3)CC2)c1` (stereo not shown) [Example 590], the Ki turned out to be 157 nM.
Regarding `CC(C)C(=O)Nc1cccc(C2CCN(CCC[S+]([O-])c3ccccc3Br)CC2)c1` (stereo not shown) [Example 591], the Ki amounted to 138 nM.
Turning to `CC(C)C(=O)Nc1cccc(C2CCN(CC[C@H](NS(=O)(=O)c3ccc(F)c(F)c3)c3ccccc3)CC2)c1` [Example 592], the Ki was 186 nM.
As to `CC(C)C(=O)Nc1cccc(C2CCN(CC[C@H](NC(=O)c3sccc3Cl)c3ccccc3)CC2)c1` [Example 593], the Ki worked out at 7.6 nM.
As to `CC(C)C(=O)Nc1cccc(C2CCN(CC[C@H](NS(=O)(=O)c3cccc4c(N(C)C)cccc34)c3ccccc3)CC2)c1` [Example 594], the Ki amounted to 67 nM.
As to `Cc1ccc(S(=O)(=O)N[C@@H](CCN2CCC(c3cccc(NC(=O)C(C)C)c3)CC2)c2ccccc2)cc1` [Example 595], the Ki was 36.3 nM.
With `CC(C)C(=O)Nc1cccc(C2CCN(CC[C@H](NS(=O)(=O)c3cc(Cl)cc(Cl)c3O)c3ccccc3)CC2)c1` [Example 596], the Ki was found to be 597 nM.
Take `CC(C)C(=O)Nc1cccc(C2CCN(CC[C@H](NS(C)(=O)=O)c3ccccc3)CC2)c1` [Example 597]: the Ki came to 223 nM.
For `CC(C)C(=O)Nc1cccc(C2CCN(CC[C@H](NS(=O)(=O)c3ccc(F)cc3)c3ccccc3)CC2)c1` [Example 598], the inhibitory constant (Ki) came out at 25.3 nM.
Consider `CC(C)C(=O)Nc1cccc(C2CCN(CC[C@H](NS(=O)(=O)c3ccc(C(C)(C)C)cc3)c3ccccc3)CC2)c1` [Example 599], for which the inhibition constant (Ki) was found to be 50 nM.
For `CC(C)C(=O)Nc1cccc(C2CCN(CC[C@H](NS(=O)(=O)c3cc(Cl)ccc3Cl)c3ccccc3)CC2)c1` [Example 600], the Ki came to 41.3 nM.
For `CCCS(=O)(=O)N[C@@H](CCN1CCC(c2cccc(NC(=O)C(C)C)c2)CC1)c1ccccc1` [Example 601] the value was 144 nM; for `Cc1noc(C)c1S(=O)(=O)N[C@@H](CCN1CCC(c2cccc(NC(=O)C(C)C)c2)CC1)c1ccccc1` [Example 602], 44.6 nM; for `COC(=O)c1sccc1S(=O)(=O)NCCCN1CCC(c2cccc(NC(=O)C(C)C)c2)CC1` [Example 603, METHYL 3-{[(3-{4-[3-(ISOBUTYRYLAMINO)PHENYL]-1-PIPERIDINYL}PROPYL)AMINO]SULFONYL}-2-THIOPHENECARBOXYLATE], 287 nM.
As to `CC(C)C(=O)Nc1cccc(C2CCN(CC[C@H](NC(=O)Nc3ccc(Oc4ccccc4)cc3)c3ccccc3)CC2)c1` [Example 604], the Ki was 36.8 nM.
For `CC(C)C(=O)Nc1cccc(C2CCN(CC[C@H](NC(=O)Nc3ccccc3)c3ccccc3)CC2)c1` [Example 605] the value was 94.5 nM; for `CC(C)C(=O)Nc1cccc(C2CCN(CC[C@H](NC(=S)NC(C)(C)C)c3ccccc3)CC2)c1` [Example 606], 40.4 nM.
As to `CC(C)C(=O)Nc1cccc(C2CCN(CC[C@H](NC(=O)Nc3ccccc3F)c3ccccc3)CC2)c1` [Example 607], the Ki came out at 142 nM.
For `Cc1ccccc1NC(=S)N[C@@H](CCN1CCC(c2cccc(NC(=O)C(C)C)c2)CC1)c1ccccc1` [Example 608] the value was 34.9 nM; for `CC(C)C(=O)Nc1cccc(C2CCN(CC[C@H](NC(=O)NCc3ccccc3)c3ccccc3)CC2)c1` [Example 609], 35.4 nM.
As to `CC(C)C(=O)Nc1cccc(C2CCN(CC[C@H](NC(=O)Nc3ccccc3[N+](=O)[O-])c3ccccc3)CC2)c1` [Example 610], the inhibition constant (Ki) was found to be 530 nM.
Consider `CC(C)C(=O)Nc1cccc(C2CCN(CC[C@H](NC(=O)Nc3ccc(Cl)c(Cl)c3)c3ccccc3)CC2)c1` [Example 611], for which the Ki worked out at 65.1 nM.
On to `CSc1ccccc1NC(=O)N[C@@H](CCN1CCC(c2cccc(NC(=O)C(C)C)c2)CC1)c1ccccc1` [Example 612], for which the Ki stood at 121 nM.
